Measurements published in ChEMBL document CHEMBL3046921, “Synthesis of 3,5-disubstituted isoxazolines as protein tyrosine phosphatase 1B inhibitors” (Med Chem Res, 2008).

Tests used:
Rattus norvegicus [1] = test: Antidiabetic activity in albino Rattus norvegicus Sprague-Dawley (rat) streptozotocin-induced diabetic model assessed as reduction of blood glucose level at 100 mg/kg, po after 5 hr; format: functional; design: scale not given: the % may be the effect or the level left
[2] = molecular target: T1, Tyrosine-protein phosphatase non-receptor type 1 (Homo sapiens) (UniProt P18031); test: (§1) Inhibition of PTP1B (unknown origin) using p-nitrophenylphosphate as substrate at 100 uM after 10 min
T1 sequence (whole entry): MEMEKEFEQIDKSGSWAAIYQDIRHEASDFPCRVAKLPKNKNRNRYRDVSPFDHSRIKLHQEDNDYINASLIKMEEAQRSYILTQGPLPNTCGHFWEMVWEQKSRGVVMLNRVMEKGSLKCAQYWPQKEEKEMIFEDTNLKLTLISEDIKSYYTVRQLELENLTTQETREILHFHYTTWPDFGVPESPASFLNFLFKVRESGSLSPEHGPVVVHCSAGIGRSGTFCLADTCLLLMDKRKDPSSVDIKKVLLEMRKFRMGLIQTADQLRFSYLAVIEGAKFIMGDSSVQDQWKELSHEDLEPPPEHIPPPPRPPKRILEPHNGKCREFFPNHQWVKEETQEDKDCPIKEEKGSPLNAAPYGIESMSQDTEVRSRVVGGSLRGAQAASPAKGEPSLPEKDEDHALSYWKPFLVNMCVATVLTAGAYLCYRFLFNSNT

Rattus norvegicus [3] = test: Antidiabetic activity in albino Rattus norvegicus Sprague-Dawley (rat) streptozotocin-induced diabetic model assessed as reduction of blood glucose level at 100 mg/kg, po after 24 hr; format: functional; design: scale not given: the % may be the effect or the level left
[4] = molecular target: T2, Tyrosine-protein phosphatase non-receptor type 1 (Homo sapiens, UniProt P18031); test: Inhibition of PTP1B (unknown origin) using p-nitrophenylphosphate as substrate after 10 min
T2 sequence (P18031 whole entry): T1 sequence (whole entry)

[5] = molecular target: Tyrosine-protein phosphatase non-receptor type 1 (Homo sapiens) (UniProt P18031); test: as §1; remark: listed apart in the source

inhibition [2] [%] | IC50 [4] [µM] | Ki [4] [µM] | inhibition [5] [%] | Compound | Activity (Rattus norvegicus [1]) [%] | Activity (Rattus norvegicus [3]) [%]
28.8 | – | – | – | COc1ccc(C2=NOC(c3ccccc3)C2)c(OC(C)=O)c1 (stereo unspecified) | 20.5 | 6.96
11.5 | 275 | 150 | – | COc1ccc(C2=NOC(c3ccncc3)C2)c(OC)c1 (stereo unspecified) | – | –
79.6 | 81 | – | – | COc1ccc(C2CC(c3ccc4occc4c3OC)=NO2)cc1 (stereo unspecified) | – | –
– | – | – | 56.2 | SODIUM [sequence] | – | –
62.4 | – | – | – | COc1c(C2=NOC(c3ccccn3)C2)ccc2c1C=CC(C)(C)O2 (stereo unspecified) | – | –
9.8 | 485 | 170 | – | COc1ccc(C2=NOC(c3ccccn3)C2)c(OC)c1 (stereo unspecified) | – | –
88.5 | 69 | 48 | – | COc1ccc(C2=NOC(c3ccccc3)C2)c(OC)c1 (stereo unspecified) | 18 | 19.7
65.8 | 67 | 48 | – | COc1ccc(C2CC(c3ccc(OC)cc3OC)=NO2)cc1 (stereo unspecified) | 2.56 | 12.2
46.5 | 165 | 135 | – | COC(=O)C1C(c2ccc(OC)cc2OC)=NOC1c1ccccc1 (stereo unspecified) | 21.6 | 7.74
– | – | – | – | CN(C)C(=N)NC(=N)N [METFORMIN] | 23.6 | 26.5
79.8 | 88 | 63 | – | COc1ccc(C2=NOC(n3ccnc3)C2)c(OC)c1 (stereo unspecified) | 22.3 | 15
80.4 | 76 | – | – | COc1c(C2=NOC(c3ccccc3)C2)ccc2occc12 (stereo unspecified) | – | –
29.5 | – | – | – | Oc1ccc(C2=NOC(c3ccccc3)C2)c(O)c1 (stereo unspecified) | – | –
47.1 | – | – | – | COc1ccc(C2=NOC(c3ccccc3)C2)c(O)c1 (stereo unspecified) | – | –
– | 86.5 | 67 | – | SODIUM HYDROXYTRIOXIDOVANADIUM | – | –
57.7 | – | – | – | COc1ccc(C2CC(c3ccc4c(c3OC)C=CC(C)(C)O4)=NO2)cc1 (stereo unspecified) | – | –
64.2 | – | – | – | COc1c(C2=NOC(c3ccccc3)C2)ccc2c1C=CC(C)(C)O2 (stereo unspecified) | – | –
91.6 | – | – | – | CC(=O)Oc1ccc(C2=NOC(c3ccccc3)C2)c(OC(C)=O)c1 (stereo unspecified) | 23 | 15
